Test results published in patent US6808873B2, “Screening assays using intramitochondrial calcium” (MitoKor, Inc., priority 2000, dated 2004).

Tests used:
Ca^2+ uniporter [1] = target: T1, Ca^2+ uniporter (Homo sapiens, UniProt Q8NE86); assay: Ca^2+ uniporter assay, digitonin-permeabilized suspended HepG2 cells, Calcium-Green-5N on FLIPR, ICMA added between two Ca^2+ pulses; type: cell-based; settings: 5 micrograms/milliliter oligomycin, 2 micromolar rotenone, 1 micromolar FCCP; for release of sequestered Ca^2+ from mitochondria after addition of the agent: added about 3 min after first 12 micromolar Ca^2+ pulse, thapsigargin present; for mitochondrial uptake of the second Ca^2+ pulse: second Ca^2+ pulse at about t=6 min, 1 micromolar RU360
T1 construct: The effects of several intracellular Ca^2+ modulating agents (ICMAs) on permeabilized HepG2 cells were examined; endogenous in cells; host or cells: HepG2 (ATCC HB-8065), digitonin-permeabilized, in suspension
T1 sequence (Q8NE86 51-351): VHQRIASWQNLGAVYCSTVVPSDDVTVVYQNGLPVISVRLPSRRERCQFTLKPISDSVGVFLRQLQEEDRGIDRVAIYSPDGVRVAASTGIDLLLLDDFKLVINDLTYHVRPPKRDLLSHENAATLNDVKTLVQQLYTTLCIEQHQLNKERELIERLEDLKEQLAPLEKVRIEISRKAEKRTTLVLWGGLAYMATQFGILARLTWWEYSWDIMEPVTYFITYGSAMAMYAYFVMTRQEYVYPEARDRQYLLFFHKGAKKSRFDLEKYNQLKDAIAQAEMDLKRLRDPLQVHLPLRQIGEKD
T1 sequence (Q9H4I9 48-107 partner limits assumed): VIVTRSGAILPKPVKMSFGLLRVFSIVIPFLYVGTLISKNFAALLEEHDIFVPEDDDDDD
Experimental: A master mix solution (MM Solution) was prepared by the addition of glutamate and malate to final concentrations of 5 millimolar each, MgCl2 to a final concentration of 1 millimolar, EGTA to a final concentrations of 0 to 8 micromolar, and Calcium-Green-5N to a final concentration of 0.1 to 1.0 micromolar, to a basic KCl-based respiratory media (“BReM”) that is described in Table 3. […] The hexapotassiun salt Calcium-Green-5N (Molecular Probes, Eugene, Oreg.) in the MM Solution is a fluorescent dye that has low binding affinity to Ca^2+.
Thapsigargin (Calbiochem, San Diego, Calif.), a Ca^2+ uptake inhibitor of the endoplasmic reticulum (ER), was added to the MM Solution to a final concentration of 1 micromolar to yield a solution designated “MM-T” (i.e., Master Mix with Thapsigargin).
The cell membrane permeabilizing agent digitonin (Sigma, St. Louis, Mo.) was added to MM-T to a final concentration of from about 0.007% to about 0.03% to yield a solution referred to as “MM-TD” (i.e., Master Mix with Thapsigargin and digitonin. CaCl2 was added to MM-T to provide a solution with a determined final concentration of Ca^2+ for the determination of intracellular Ca^2+ flux.
The effects of several intracellular Ca^2+ modulating agents (ICMAs) on permeabilized HepG2 cells were examined as follows. The mitochondrial respiratory inhibitors oligomycin (Calbiochem, San Diego, Calif.) and rotenone (Calbiochem) were added to MM-T to final concentrations of 50 micrograms/milliliter and 20 micromolar, respectively. The uncoupler FCCP was similarly added to MM-T to a 10× concentration (10 micromolar) to yield a stock solution of FCCP, MM-TF (i.e., Master Mix with Thapsigargin and FCCP). The ICMA Ru360, which blocks Ca^2+ uptake into the mitochondria by the calcium uniporter, was added to MM-T to a concentration of 100 micromolar to yield MM-T360 (i.e., Master Mix with Thapsigragin and Ru360). CaCl2 was added to MM-T to yield a 10× solution of CaCl2 (120 micromolar) in MM-T.
HepG2 cells were cultured in Eagle's minimal essential medium (MEM) with non-essential amino acids, sodium pyruvate and Earle's balanced salt solution (BSS), 90%; fetal bovine serum (FBS), 10%. Cells were centrifuged (500×g) and the growth media was aspirated from the pellet. The HepG2 cells were resuspended in MM-TD at a concentration of 1×10^7 cells/milliliter, and 100 microliters of the resuspended permeabilized cells were dispensed into wells of a 96-well Costar 3603 microplate. The plate was placed into a FLIPR™ prewarmed to 37° C. MM-T, 120 micromolar Ca^2+, was dispensed into the cell-containing wells at a volume of 11.1 microliters, yielding a final assay concentration of 12 micromolar Ca^2+. The addition of Ca^2+ at this stage of the assay is referred to as the first calcium pulse and the time at which Ca^2+ is added is designated t=0.
After about three minutes (i.e., at about t=3 min.), 12.3 microliters of one of the ICMA solutions were dispensed into wells containing permeabilized cells to yield final assay concentrations of 5 micrograms/milliliter oligomycin, 2 micromolar rotenone, 1 micromolar FCCP, 1 micromolar RU360, and MM-T (no ICMA).
Cells were exposed to a second calcium pulse by the addition of 13.7 microliters of MM-T, 120 micromolar Ca^2+, to the cells after an additional 3 minutes (i.e., at about t=6 min.).

Ca^2+ uniporter [2] = assay: Ca^2+ uniporter assay, adherent permeabilized MixCon cells, Calcium-Green-5N on FLIPR, with respiratory inhibitors; type: cell-based; settings: 10 micromolar Ca^2+; for Ca^2+-5N fluorescence after the second Ca^2+ pulse, presence of succinate: oligomycin 5 micrograms/milliliter and rotenone 2 micromolar together (MM-GMS-TD-OR), 5 millimolar succinate; for Ca^2+-5N fluorescence after the second Ca^2+ pulse, presence of succinate / Ca^2+-5N fluorescence after the second Ca^2+ pulse, absence of succinate: FIG. 8; for signal corresponding to extramitochondrial calcium after each Ca^2+ pulse: oligomycin 5 micrograms/milliliter or rotenone 2 micromolar, three pulses, FIG. 7; for Ca^2+-5N fluorescence after the second Ca^2+ pulse, absence of succinate: oligomycin 5 micrograms/milliliter, rotenone 2 micromolar, glutamate/malate medium
Experimental: Mitochondrial inhibitors of oxidative phosphorylation, oligomycin and rotenone, were used to observe the effect of decreased membrane potential of mitochondria on cytosol Ca^2+ levels in the adherent cell line MixCon. The adherent MixCon cells in Dulbecco's modified Eagle's medium and 10% FBS growth media were dispensed into wells of a 96-well microtiter plate at a concentration of about 6×10^4 cells in 100 microliters per well 48 hours prior to assay. Just prior to their use the growth media was aspirated from the wells. Ninety (90) microliters of MM-TD with oligomycin (5 micrograms/milliliter) or rotenone (2 micromolar), or MM-TD without either inhibitor, were added to the cells. The plate was placed in a FLIPR™ system, and three doses of the 10× stock (100 micromolar) solution of calcium were dispensed into the different wells at approximately 2 minute intervals with increasing volumes (10, 11.1, and 12.3 microliters respectively), resulting in a constant concentration of 10 micomolar Ca^2+ throughout the course of the assay. Emissions at the 531 nm wavelength were monitored by a FLIPR™ as a measure of extramitochondrial Ca^2+-Green-5N fluorescence. The signal corresponding to extramitochondrial calcium increased after each pulse and, in samples when remained high when in the presence of the two inhibitors. Alternatively, Ca^2+ is sequestered in mitochondria of cells not exposed to inhibitors (FIG. 7).
Another assay was performed to examine the effect by the respiratory inhibitors oligomycin and rotenone and subsequent release of Ca^2+ from mitochondria in the presence or absence of succinate in MixCon cells. Two different master mixes (MM and MM-GMS) were prepared with MM prepared as previously described. MM-GMS was prepared by the addition of glutamate, malate and succinate to final concentrations of 5 millimolar each, MgCl2 to a final concentration of 1 millimolar, EGTA to a final concentration of 10 micromolar, and Calcium-Green-5N to a final concentration of 0.1 micromolar, to a basic KCl-based respiratory media (BReM, Table 3). Thapsigargin was added to the MM and MM-GMS to a final concentration of 1 micromolar to yield MM-T and MM-GMS-T (where “T” indicates Thapsigargin and “GMS” indicates glutamate, malate and succinate. The cell permeabilizing agent digitonin was added to MM-T and MM-GMS-T to a final concentration of 0.03% to yield solutions designated as MM-TD and MM-GMS-TD. As indicated in some instances, the mitochondrial inhibitors oligomycin and rotenone (Calbiochem) were each added to solutions of MM-TD and MM-GMS-TD to final concentrations of 5 micrograms/milliliter and 2 micromolar, respectively.
CaCl2 was added to MM-T and MM-GMS-T to a concentration of 50 micromolar Ca^2+ to yield 5× Ca^2+ solutions in MM-T and MM-GMS-T, respectively. Versions of the 5× Ca^2+ stock solutions comprising respiratory inhibitors were also prepared (oligomycin, final concentration of 50 micrograms/milliliter; rotenone, 20 micromolar).
The MixCon cells, in Dulbecco's modified Eagle's medium and 10% FBS growth media, were dispensed into wells of a 96-well Costar 3603 microtiter plate at a concentration of 6×10^4 cells in one hundred microliters per well, 48 hours prior to the assay. Just prior to their use the growth media was aspirated from the wells. Eighty (80) microliters of MM-TD, MM-GMS-TD, MM-TD-O, MM-TD-R, and MM-GMS-TD-OR (where “O” oligomycin and “R” signifies rotenone) were dispensed into wells containing the cells. The microtiter plate was placed in a FLIPR™ preheated to 37° C. and an initial injection of 20 microliters of the 5× stock solutions (50 micromolar) of Ca^2+, with olygomycin, rotenone or no additions, were dispensed into the appropriate wells such that the Ca^2+ concentration in the assay is 10 micromolar and wells with the inhibitors remain at constant assay concentrations.
A second pulse of 25 microliters of the 5× solution was supplied after approximately 5 minutes. […]

calcium uniporter (CaUP) = assay: Calcium uniporter (CaUP) functional assay, suspended permeabilized L6 cells, FLIPR; type: cell-based, rat; settings: 5 microgram/milliliter oligomycin and 2 micromolar rotenone together, 16 micromolar Ca^2+; FIG. 9
Experimental: A series of functional assays were performed on non-adherent cell lines in order to optimize the mitochondria Ca—UP assay on FLIPR using Calcium-Green-5N and digitonin permeabilized cells. A dose response of Ca^2+ pulses with and without the addition of mitochondria oxidative respiration uncouplers were performed utilizing cells from […]. MM with thapsigarin, MM-T, and digitonin, MM-TD, are prepared as previously described. Ten times (10×) Ca^2+ media is prepared by adding CaCl2 (160 micromolar) to MM-T. The L6 cells were suspended in the cell permeabilizing respiratory media MM-TD at a concentration of 1×10^7 cells per milliliter. […] Emissions resulting from [Ca^2+:Calcium-Green-5N] complexes were monitored at the appropriate wavelength so as to follow changes in intracellular Ca^2+ levels throughout the assay.
Functional assays of the calcium uniporter (CaUP) were similarly performed on non-adherent L6 cells, as described above, with respiratory inhibitors oligomycin and rotenone in order to observe the effects of elimination of the membrane potential using this high throughput FLIPR. […] The emission wavelength was monitored and intracellular Ca^2+ levels observed throughout assay. […] When media with no Ca^2+ is added, the fluorescence changes only minimally (rows 3 and 4)] […]

Ca^2+ uniporter [3] = target: T1, Ca^2+ uniporter; assay: High-throughput uniporter assay of different compounds, permeabilized HepG2 cells with and without thapsigargin, FLIPR II; type: cell-based; settings: test compounds 1 micromolar
Excerpt: The high-throughput uniporter assay protocol, carried out as described above for suspension cells, was used to determine the effect of different compounds on mitochondria and extramitochondrial Ca^2+ concentrations in the presence or absence of the Ca^2+ uptake inhibitor of the endoplasmic reticulum, thapsigargin (Calbiochem). Agents examined in this assay include calcium channel inhibitors, pro- and anti-oxidants, mitochondrial inhibitors and uncouplers, and the Ca—UP inhibitor Ru360. On the day of the assay, solutions of the respiratory/cell permeabilizing media containing digitonin with thapsigarin (MM-TD) and without thapsigarin (MM-D) were prepared as previously described. Calcium chloride was added to each to a final concentration of 6 micromolar Ca^2+, resulting in MM-TD, 6 uM Ca and MM-D, 6 uM Ca. A MM solution was prepared with a 10× Ca^2+ concentration of 200 micromolar for the second Ca^2+ pulse. The Ca^2+-uniporter inhibitor Ru360 was prepared at a 10× concentration of 100 microliters in MM. Ten times (10×) stock solutions of the other agents were prepared for the assay by the addition of the compounds to final concentrations of 10 micromolar into MM. […] Controls include water and 10% DMSO (Sigma) in MM.
Cells of the HepG2 cell line (hepatocellular carcinoma, ATCC HB-8065) were trypsinized from near-confluent flasks in growth media (Eagle's MEM with non-essential amino acids, sodium pyruvate and Earle's BSS, 90%; FBS 10%). Cells were centrifuged, growth media was aspirated, and cells were resuspended to a concentration of 1×10^7 cells per milliliter in MM-TD, 6 uM Ca, or MM-D, 6 uM Ca. One hundred (100) microliters of the cell suspension (about 1×10^6 cells) were delivered to wells of a microtiter plate. The plate was placed in a FLIPR™ II (used in 96-well format) warmed to 37° C. An 11.1 microliter aliquot of the 10× stock solutions with water or DMSO (controls), Ru360 (Ca—UP inhibitor), or the test compounds, were dispensed into designated wells such that the assay concentration of DMSO is 0.1%, Ru360 is 10 micromolar, and each of the test compounds are at 1 micromolar concentrations. After an additional three minutes, a second addition of 12.3 microliters of the 10× CaCl2 (200 micromolar Ca^2+), was dispensed into the wells of the microtiter plate resulting in assay concentrations of 20 micromolar Ca^2 (Extramitochondrial Ca^2+ bound to the calcium indicator dye was monitored throughout and profiles of each assay; the results are presented in FIG. 12, with all thapsigargin minus (thaps−) assays in wells corresponding to columns 1-6 and thapsigargin plus (thaps+) assays in wells corresponding to columns 7-12.

CC[C@H]1/C=C/C=C/C[C@@H](C)[C@H](O)[C@@](C)(O)C(=O)[C@@H](C)[C@H](O)[C@@H](C)C(=O)[C@@H](C)[C@H](O)[C@@H](C)/C=C/C(=O)O[C@@H]2[C@H](C)[C@H](CC1)O[C@]1(CC[C@H](C)[C@H](C[C@@H](C)O)O1)[C@H]2C [oligomycin]
release of sequestered Ca^2+ from mitochondria after addition of the agent (Ca^2+ uniporter [1]): caused the release of Ca^2+ from mitochondria into the cytosol | mitochondrial uptake of the second Ca^2+ pulse (Ca^2+ uniporter [1]): could not sequester the added Ca^2+ | Ca^2+-5N fluorescence after the second Ca^2+ pulse, presence of succinate (Ca^2+ uniporter [2]): reduction of Ca^2+-5N fluorescence after the second Ca^2+ pulse | signal corresponding to extramitochondrial calcium after each Ca^2+ pulse (Ca^2+ uniporter [2]): remained high | Ca^2+-5N fluorescence after the second Ca^2+ pulse, absence of succinate (Ca^2+ uniporter [2]): elevated levels of Ca^2+-5N fluorescence after the second Ca^2+ pulse | mitochondrial sequestration of added Ca^2+ (calcium uniporter (CaUP)): Ca^2+ is not sequestered in the mitochondria

C=C(C)[C@H]1Cc2c(ccc3c2O[C@@H]2COc4cc(OC)c(OC)cc4[C@@H]2C3=O)O1 [rotenone]
release of sequestered Ca^2+ from mitochondria after addition of the agent (Ca^2+ uniporter [1]): caused the release of Ca^2+ from mitochondria into the cytosol | mitochondrial uptake of the second Ca^2+ pulse (Ca^2+ uniporter [1]): could not sequester the added Ca^2+ | Ca^2+-5N fluorescence after the second Ca^2+ pulse, presence of succinate (Ca^2+ uniporter [2]): reduction of Ca^2+-5N fluorescence after the second Ca^2+ pulse | signal corresponding to extramitochondrial calcium after each Ca^2+ pulse (Ca^2+ uniporter [2]): remained high | Ca^2+-5N fluorescence after the second Ca^2+ pulse, absence of succinate (Ca^2+ uniporter [2]): elevated levels of Ca^2+-5N fluorescence after the second Ca^2+ pulse | mitochondrial sequestration of added Ca^2+ (calcium uniporter (CaUP)): Ca^2+ is not sequestered in the mitochondria | uniporter activity profile after the 20 micromolar Ca^2+ pulse (Ca^2+ uniporter [3]): Ca^2+ can no longer be sequestered by the mitochondria
